The values that follow come from patent US8557992B2, “Heterocyclic fused phenanthrolinone M1 receptor positive allosteric modulators” (Merck Sharp & Dohme Corp., priority 2010, dated 2013).

The target in one assay is T1, acetylcholine muscarinic M1 receptor (hM1) (Homo sapiens, UniProt P11229).
T1 construct: expressed in transfected cells; host or cells: CHOnfat (CHO cells, Geneticin selection)
T1 sequence (P11229 1-460): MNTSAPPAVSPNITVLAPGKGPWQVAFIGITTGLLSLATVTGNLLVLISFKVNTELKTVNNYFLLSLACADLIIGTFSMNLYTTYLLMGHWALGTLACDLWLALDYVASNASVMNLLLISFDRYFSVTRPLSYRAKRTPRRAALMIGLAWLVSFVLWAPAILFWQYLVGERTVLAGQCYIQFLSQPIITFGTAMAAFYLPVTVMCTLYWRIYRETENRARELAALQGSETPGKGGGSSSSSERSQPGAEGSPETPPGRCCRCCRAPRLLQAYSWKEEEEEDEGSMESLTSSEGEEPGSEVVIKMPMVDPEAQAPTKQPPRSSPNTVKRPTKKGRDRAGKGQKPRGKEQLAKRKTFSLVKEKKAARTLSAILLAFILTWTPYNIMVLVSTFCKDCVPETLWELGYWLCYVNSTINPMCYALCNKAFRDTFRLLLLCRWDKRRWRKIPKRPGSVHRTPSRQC
The assay can be described thus: FLIPR intracellular calcium assay for M1 positive allosteric modulator activity in CHOnfat/hM1 cells. The assay is classed as cell-based. Particulars: 4 min preincubation, then acetylcholine EC20 (3 nM final), calculated from FLIPR values, read-out: IP Value (inflection point). Here is the method: The assay studies the effect of one or several concentrations of test compounds on basal or acetylcholine-stimulated Ca^2+ levels using FLIPR.
Compounds are prepared and subjected to a preincubation period of 4 min. Thereafter, a single EC20 concentration of acetylcholine is added to each well (3 nM final). The intracellular Ca^2+ level of each sample is measured and compared to an acetylcholine control to determine any modulatory activity.
Cells: CHOnfat/hM1, hM2, hM3 or hM4 cells are plated 24 hr before the assay at a density of 18,000 cells/well (100 μL) in a 384 well plate. CHOnfat/hM1 and CHOnfat/hM3 Growth Medium: 90% DMEM (Hi Glucose); 10% HI FBS; 2 mM L-glutamine; 0.1 mM NEAA; Pen-Strep; and 1 mg/ml Geneticin, are added. For M2Gqi5CHOnfat and M4Gqi5CHOnfat cells, an additional 600 ug/ml hygromycin is added.
Equipment: 384 well plate, 120 μL addition plate; 96-well Whatman 2 ml Uniplate Incubator, 37° C., 5% CO2; Skatron EMBLA-384 Plate Washer; Multimek Pipetting System; Genesis Freedom 200 System; Mosquito System; Temo Nanolitre Pipetting System; and FLIPR^384 Fluorometric Imaging Plate Reader System are used.
Buffers. Assay Buffer: […] Balanced Salt Solution, with 20 mM Hepes, 2.5 mM Probenecid (Sigma P-8761) first dissolved in 1 N NaOH, 1% Bovine Serum Albumin (Sigma A-9647). Dye Loading Buffer: Assay Buffer plus 1% Fetal Bovine Serum and Fluo-4AM/Pluronic Acid Mixture. 2 mM Fluo-4AM ester stock in DMSO (Molecular Probes F-14202) Concentration of 2 μM in buffer for a final concentration of 1 μM in Assay. 20% Pluronic Acid Solution stock, with concentration of 0.04% in Buffer, 0.02% in Assay.
65 μL of 2 mM Fluo-4AM are mixed with 130 μL of 20% Pluronic Acid. The resulting solution and 650 μL FBS is added to the assay buffer for a total volume of 65 mL. Positive Controls: 4-Br-A23187: 10 mM in DMSO; final concentration 10 μM. Acetylcholine: 10 mM in water, working stock at both 20 μM and 30 μM in assay buffer, final concentration of 10 μM. This is used to check the maximum stimulation of the CHOK1/hM1 cells. 20 μM (2×) acetylcholine is added in the preincubation part of the assay, and the 30 μM (3×) stock is added in the second part. (EC20) Acetylcholine: 10 mM in water, working stock of 9 nM (3×), and final concentration in assay is 3 nM. This is used after the preincubation with test compounds. Addition of the EC20 Acetylcholine to each well with a test compound will ascertain any modulator activity. 24 wells contain 3 nM Acetylcholine alone as a control.
Screening Plate Compounds are titrated in 96-well plates (columns 2-11), 100% DMSO, started at a concentration of 15 mM (150× stock concentration), and 3-fold serial dilutions using Genesis Freedom200 System. Four 96-well plates are combined into a 384-well plate using Mosquito Nanolitre Pipetting System by transferring 1 μl of serial diluted compounds to each well, and 1 mM acetylcholine (100× stock concentration) were added as a control. Using Temo, 49 μl assay buffer is added to each well of the 384-well plate right before assay.
In a 96-well Whatman 2 ml Uniplate, 9 nM Acetylcholine (3×) is pipetted into wells corresponding to the screening compounds, and into control wells. The 30 μM acetylcholine control (3×) is added into control wells, and the 3× agonist plate is transferred into a 384 well plate.
Cells are washed three times with 100 μL of buffer, leaving 30 μL of buffer in each well. Using Multimek, 30 μL of Dye Loading Buffer is added into each well and incubated at 37° C., 5% CO2 for up to one hr.
After 60 min, the cells are washed three times with 100 μL of buffer, leaving 30 μL of buffer in each well. The cell plate, screening plate, and agonist addition plates are placed on the platform in the FLIPR and the door closed. A signal test to check background fluorescence and basal fluorescence signal is performed. Laser intensity is adjusted if necessary. […]
As for `O=c1c2cc(Cc3ccc(Cl)nc3)c3cccnc3c2ccn1[C@H]1CCCC[C@@H]1O` [Example 1, 5-[(6-Chloropyridin-3-yl)methyl]-8-[(1S,2S)-2-hydroxycyclohexyl]-1,8-phenanthrolin-7(8H)-one], the EC50 was 23.5 nM.
Still for that read-out and setting: next, `COc1ccc(Cc2cc3c(=O)n([C@H]4CCOC[C@@H]4O)ccc3c3ncccc23)cn1` [Example 2, 1,5-Anhydro-2,3-dideoxy-3-{5-[(6-methoxypyridin-3-yl)methyl]-7-oxo-1,8-phenanthrolin-8(7H)-yl}-L-threo-pentitol]: 20.6 nM.
Same read-out and setting: under `CSc1ccc(Cc2cc3c(=O)n([C@H]4CCCC[C@@H]4O)ccc3c3ncccc23)cn1` [Example 3] stands 15 nM.
With `O=c1c2cc(Cc3ccnc(OC(F)F)c3)c3cccnc3c2ccn1[C@H]1CCCC[C@@H]1O` [Example 4], the EC50 is 72 nM.
Regarding `Cn1cc(-c2ccc(Cc3cc4c(=O)n([C@H]5CCCC[C@@H]5O)ccc4c4ncccc34)cn2)cn1` [Example 5], the EC50 is 1.7 nM.
`O=c1c2cc(Cc3cccnc3)c3cccnc3c2ccn1[C@H]1CCCC[C@@H]1O` [Example 6, 8-[(1S,2S)-2-hydroxycyclohexyl]-5-(pyridin-3-ylmethyl)-1,8-phenanthrolin-7(8H)-one]: the EC50 was 28.6 nM.

Still in this assay, the particulars now being: Table 1, unit inferred, potentiation of acetylcholine EC20 (3 nM final), read-out: H Pot.
As for `COc1ccc(Cc2cc3c(=O)n([C@H]4CCCC[C@@H]4O)ccc3c3ncccc23)cc1` [Example 7], the EC50 turned out to be 21 nM.
The same measure, in the same setting: under `COc1ccc(Cc2cc3c(=O)n([C@H]4CCOC[C@@H]4O)ccc3c3ncccc23)cc1` [Example 8] stands 6.2 nM.
On the same count and under the same terms, under `COc1ccc(Cc2cc3c(=O)n([C@H]4CCCC[C@@H]4O)ccc3c3ncccc23)cn1` [Example 9] stands 22.5 nM; under `COc1cc(Cc2cc3c(=O)n([C@H]4CCCC[C@@H]4O)ccc3c3ncccc23)ccn1` [Example 10], 21.9 nM.
On the same count and under the same terms, under `O=c1c2cc(Cc3ccnc(Cl)c3)c3cccnc3c2ccn1[C@H]1CCCC[C@@H]1O` [Example 11] stands 20.5 nM; under `Cc1cc(Cc2cc3c(=O)n([C@H]4CCCC[C@@H]4O)ccc3c3ncccc23)ccn1` [Example 12], 24 nM; under `O=c1c2cc(Cc3ccc(OC(F)F)nc3)c3cccnc3c2ccn1[C@H]1CCCC[C@@H]1O` [Example 13], 55 nM.
Take `Cc1cc(Cc2cc3c(=O)n([C@H]4CCOC[C@@H]4O)ccc3c3ncccc23)ccn1` [Example 14]: the EC50 came out at 16.8 nM.
